Results from patent publication US20250282720A1, “ALKYLSULFENYL THIOCARBONATES: PRECURSORS TO HYDROPERSULFIDES POTENTLY ATTENUATE OXIDATIVE STRESS” (The Johns Hopkins University, priority 2021, published 2025).
Entries after “also recorded” stand apart in the source; their conditions may differ.

Legend:
FA fibroblasts [1] = test: Protection against erastin-induced ferroptosis in FA fibroblasts; format: cell-based, human; details: 25 μM and 50 μM, 4 h pretreatment, erastin 24 h
Experimental: FIG. 10A, pretreatment of AST with varying concentrations in FA fibroblasts (GM04078, Coriell Institute) for 4 h followed by 4 h treatment with H2O2. Viability was measured using CCK8 assay. FIG. 10B, pretreatment of AST with varying concentrations in FA fibroblasts for 4 h followed by treatment with erastin for 24 h. Results are expressed as SEM with n≥3 for all concentrations. **P<0.005, for comparisons with the erastin group. Group comparisons are determined by a one-way analysis of variance (ANOVA) with Dunnet's correction post-hoc test using GraphPad Prism 8;
We next sought to determine whether AST would protect FA fibroblasts against erastin-induced cell death. Erastin is an inducer of ferroptosis, an iron-dependent form of cell death. It acts as an inhibitor of the cystine glutamate antiporter (system Xc), inhibiting the import of cystine, which leads to downstream depletion of glutathione (GSH) and ultimately to elevated ROS production.

H9c2 cardiac myoblasts [2] = test: Intracellular sulfane sulfur detection using the SSP4 probe; format: cell-based, rat; parameters: SSP4 fluorescence signal (intracellular sulfane sulfur): dose or concentration left out as unconfirmed
Experimental: Increased intracellular RSSH levels resulting from incubation with 1a utilizing SSP4, a fluorescent probe that has been used to detect of intracellular sulfane sulfur, Chen et al., 2013; Marutani et al., 2014, also was tested. Sulfane sulfur refers to a sulfur atom with six valence electrons and no charge. Biologically important sulfane sulfur compounds include RSSH, polysulfides (RSnSH or RSSnSR, n≥1), inorganic polysulfides (HSSnH, n≥1), and elemental sulfur (S8). Briefly, cells were incubated with SSP4 in the presence of cetrimonium bromide (CTAB) for 20 min and then washed with serum-free media before 1a is introduced. A significant increase of the SSP4 fluorescence signal was not observed following treatment with […] 1a due to the low amount of RSSH released at this concentration falling below the detection limit of the probe (FIG. 6). […] Since the SSP4 probe is known to react with a variety of sulfane sulfur species, the fluorescence signal observed upon treatment of 1a is likely due to RSSH and/or other sulfane sulfur species that might be present in the equilibrium with RSSH (e.g., Scheme 1-5). Thus, it is thought that the cytoprotective effects of 1a are attributed to increasing sulfane sulfur pools within the cultured cells.
Cells were seeded at a density of 1.5×10^4 cells/well. […] The fluorescence readings were obtained at 482Ex/515Em.

aconitase = test: Aconitase protein expression, immunoblot; format: cell-based, human
Experimental: Mitochondrial aconitase levels are unaffected by treatment of AST and H2O2. Immunoblot analysis was conducted utilizing enriched-mitochondrial pellets. Results are expressed as SEM with n≥3 for all concentrations;
Given these encouraging results, it was critical to determine whether the RSSH's positive impact on aconitase activity was due to enhanced Fe—S cluster biosynthesis or increased aconitase expression.

FA fibroblasts [3] = test: Lipid peroxidation, C11-BODIPY (581/591) flow cytometry; format: cell-based, human; details: 50 μM pre-treatment for 4 h, erastin 10 μM
Text: Blue represents DMSO-treated cells, red represents erastin treated cells, and green represents reduction of lipid peroxidation in live cells pretreated with AST;
The reduction of FXN levels in FA increases mitochondrial iron accumulation, ultimately leading to iron-dependent accumulation of lipid ROS and subsequent lipid peroxidation. […] As has been reported previously, we employed C11-BODIPY (581/591) to monitor a shift in fluorescence of oxidized C11-BODIPY. […] Dixon et al., 2012; Martinez et al., 2020.

H9c2 cardiac myoblasts [4] = test: H9c2 cell protection from H2O2-mediated oxidative stress, Sytox Green nucleic acid stain; format: cell-based, rat; details: Sytox viability assay, H2O2 200 μM
Experimental: Jones and Singer, 2001. […] Tominaga et al., 1999.
Cells were incubated for 2 h before media was removed and the cells gently washed with PBS (pH 7.4). Then, 180 μL of fresh media and 20 μL H2O2 diluted in H2O were added before cells were incubated for an additional 1 h.

[5] = Decomposition of precursors in the presence of thiol (NAC / N-acetyl cysteine methyl ester), HPLC; format: physicochemical; details: 5 equiv NAC, PBS pH 7.4, HPLC
Experimental: Initially, the decomposition of 1a was analyzed in the presence of 5 equiv of N-acetylcysteine (NAC) in PBS (pH 7.4) by HPLC. […] To investigate the mechanism, this reaction was monitored by UPLC-MS. […] Additionally, a small amount of unsymmetrical dialkyl polysulfide (pink highlight, R^1SSnSR^2, n=0-3) is observed, likely formed via NAC reaction with symmetrical dialkyl polysulfides (Scheme 1-5, eq. 7). As expected, a new peak at 5.65 min corresponding to N-acetyl cysteine-thiocarbonate 9a also is observed, confirming thiol attack at the perthiocarbonate carbonyl carbon of 1a to release RSSH. Due to the unstable nature of RSSH under these experimental conditions, the yield of the by-product 9a was measured as an indication of RSSH yield. The observation of RSSH-derived polysulfides formation as major products led us to anticipate the efficient formation of by-product 9a. […] The lower observed yield of 9a is likely due to its further reaction with RSSH under these conditions. […]
To a solution of N-acetyl cysteine methyl ester (500 μM) in pH 7.4 phosphate buffer saline (100 mM) containing DTPA (100 μM), precursor 1a or 8 (100 μM) was added. […] At different time points, an aliquot of the reaction mixture (500 μL) was withdrawn and transferred to pre-cooled 0.1% formic acid (500 μL) and analyzed using HPLC. […]

[6] = pH 7.4 solution at 37° C.; cited from earlier work

- aconitase expression levels (aconitase; in combination with erastin): no significant impact
- t1/2 of decomposition in the presence of thiol [5]: 38.4 ± 6.6 s
Structure (SMILES): COC(=O)C(NC(C)=O)C(C)(C)SSC(=O)Oc1ccccc1 (stereo not drawn) [Precursor 1a, Methyl 2-acetamido-3-methyl-3-((phenoxycarbonyl)disulfaneyl)butanoate]
- protection against erastin-induced ferroptosis (FA fibroblasts [1]): nearly complete protection
- SSP4 fluorescence signal (intracellular sulfane sulfur) (H9c2 cardiac myoblasts [2]): not observed
- SSP4 fluorescence intensity (intracellular sulfane sulfur) (H9c2 cardiac myoblasts [2]; 100 and 200 mM, over a period of 3 h): Dose-dependent increases in fluorescence intensity
- aconitase protein expression (aconitase; 25 μM, 12 h pretreatment, 12 h H2O2, listed as AST): does not alter aconitase protein expression; also recorded: unaffected
- erastin-induced lipid peroxide levels (FA fibroblasts [3]): attenuated erastin-induced lipid peroxide levels
- cytoprotection against H2O2-mediated toxicity (H9c2 cardiac myoblasts [4]): consistently shows protective effects
- half-life [6]: 2.15 h
